Values joined by “and” are separate entries in the source; they are usually repeats but may differ in a detail not shown here. Identical values can stand only once. Like-named read-outs stand apart in the source and are kept apart here.
Assays:
[1] = Single dose pharmacokinetic study in cynomolgus monkey; type: in vivo
Procedure: Pharmacokinetic studies were conducted in male beagle dogs and male cynomolgus monkeys at SRI International, Menlo Park, CA. General procedures for animal care and housing were in accordance with the National Research Council (NRC) Guide for the Care and Use of Laboratory Animals (1996) and the Animal Welfare Standards incorporated in 9 CFR Part 3, 1991 and complied with guidelines set forth by the ARVO Animal Statement for the Use of Animals in Ophthalmic and Vision Research. During the course of the PK experiments, cynomolgus monkeys were individually housed in stainless steel primary enclosures in an AAALAC-accredited facility. Animals were fed a commercial monkey chow, and supplemental food was provided (fresh fruits, vegetables, seeds, and nuts). Reverse osmosis-purified drinking water was available at all times. Cynomolgus monkeys were maintained on a 12:12 hour light:dark cycle at the 64–84°F temperature and 30–70% humidity. Monkeys had access to enrichment opportunities (grooming devices, foraging devices, activity panels and mirrors) and were provided auditory stimuli and human interaction enrichment throughout the study. Blood samples were collected by venipuncture of a peripheral vein. Animals were acclimated to the squeeze back mechanism in their home cage by repeated, short periods of restraint during general husbandry procedures for at least 2 weeks prior to dosing. Animal were not removed from their cages for collection, and no anesthesia/analgesic agents were used for blood collection. […] For PK experiments, beagle dogs were individually housed in enclosed run (≥ 4 ft x 6 ft). Dogs were exposed to their daily ration of food, Harlan Teklad 2025C Certified Global 25% Protein Dog Diet. Water was provided from the public water supply (municipal tap water) ad libitum. Dogs were maintained on a 12:12 hour light:dark cycle at the 72–73°F temperature and 40–71% humidity. Every effort was made to minimize, if not eliminate, pain and suffering in all animals in this study. No restraining devices were used in blood collecting procedures. Dogs were gentle hand-held to restrain by trained technicians with the dogs foreleg extended for sample collection of blood from cephalic vein. Animals were awake during blood sample collection with no anesthesia/analgesic agents used, and positive reinforcement by the technician was provided following collection. […] All dogs were released back to the colony after the study was completed. Male beagle dogs and male cynomolgus monkey received a single i.v. dose of a test compound at 0.5 mg kg^−1 (dog) and 1 mg kg^−1 (monkey) or a single p.o. dose of a test compound of at 2 mg kg^−1 (dog) and 5 mg kg^−1 (monkey). The number of animals that was used in PK experiments is 3 per study group. Intravenous administration vehicle was 3% DMA/45% PEG300/12% ethanol/40% sterile water; p.o. vehicle was 2% Tween 80 in 0.9% saline. […] Blood samples were processed to plasma. Following protein extraction with acetonitrile, compound concentrations in plasma were measured by LC-MS/MS. The plasma drug level data were analyzed using WinNonlin software package; Model 201 (for i.v. bolus administration);was used for the analysis of i.v. data, and Model 200 (for extravascular administration) was used for the analysis of the p.o. data. Aliquots of pre-dose plasma samples, as well as aliquots of plasma PK samples, were used for the analysis of the plasmabiomarker, RBP4.
Administration to Non-Human Primates
II. MATERIALS AND METHODS

[2] = Metabolic clearance in human hepatocytes; type: in vitro ADME; settings: cryopreserved hepatocytes, read-out: Hepatocyte CLint (intrinsic clearance)
Procedure: All measurements were done in duplicate. Testosterone and 7-hydroxycoumarin were used as positive controls. Pooled cryopreserved human hepatocytes, cryopreserved male beagle dog hepatocytes, and cryopreserved male cynomolgus monkey hepatocytes were obtained from BioIVT (Baltimore, MD). Compound at 1 μM was incubated with 1 x 10^6 cells. Final DMSO concentration in the reaction mix was 0.1%. Aliquots (100 μL) of reaction mixtures were removed from the incubation plate at different timepoints and mixed with 150 μL of ice-cold acetonitrile. After incubation on ice for 15 min, the samples were centrifuged (3,600 rpm, 10 min, 4°C) to precipitate protein. The supernatants were diluted 1:1 (v/v) with water containing internal standards and subjected to the LC/MS analysis. Hepatic clearance was calculated using the well-stirred liver model

[3] = male, cynomolgus monkey, plasma, po, Cyno, 5.0 mg kg^−1 p.o., mean ± SD, n=3

Cc1cc(C(=O)O)nc(N2C[C@H]3C[C@@H](c4ccccc4C(F)(F)F)C[C@H]3C2)n1 [BPN-14136]
concentration at 4 hr ([1]; male, cynomolgus monkey, plasma, po, 5 mg/kg, non-human primate, po 5 mg/kg, 4 hr, read-out: Plasma level, Individual animals): 26600 ng/mL
concentration at 4 hr ([1]; male, cynomolgus monkey, plasma, po, 5 mg/kg, non-human primate, po 5 mg/kg, 4 hr, read-out: Plasma level, Mean): 27200 ng/mL
concentration at 6 hr ([1]; male, cynomolgus monkey, plasma, po, 5 mg/kg, non-human primate, po 5 mg/kg, 6 hr, read-out: Plasma level, Individual animals): 26700 ng/mL
concentration at 6 hr ([1]; male, cynomolgus monkey, plasma, po, 5 mg/kg, non-human primate, po 5 mg/kg, 6 hr, read-out: Plasma level, Mean): 26600 ng/mL
concentration at 8 h ([1]; male, cynomolgus monkey, plasma, po, 5 mg/kg, non-human primate, po 5 mg/kg, 8 hr, read-out: Plasma level, Individual animals): 23900 ng/mL
concentration at 8 h ([1]; male, cynomolgus monkey, plasma, po, 5 mg/kg, non-human primate, po 5 mg/kg, 8 hr, read-out: Plasma level, Mean): 23900 ng/mL
concentration at 12 h ([1]; male, cynomolgus monkey, plasma, po, 5 mg/kg, non-human primate, po 5 mg/kg, 12 hr, read-out: Plasma level, Individual animals): 16700 ng/mL
concentration at 12 h ([1]; male, cynomolgus monkey, plasma, po, 5 mg/kg, non-human primate, po 5 mg/kg, 12 hr, read-out: Plasma level, Mean): 18600 ng/mL
concentration at 24 h ([1]; male, cynomolgus monkey, plasma, po, 5 mg/kg, non-human primate, po 5 mg/kg, 24 hr, read-out: Plasma level, Individual animals): 12700 ng/mL
concentration at 24 h ([1]; male, cynomolgus monkey, plasma, po, 5 mg/kg, non-human primate, po 5 mg/kg, 24 hr, read-out: Plasma level, Mean): 12500 ng/mL
concentration at 36 h ([1]; male, cynomolgus monkey, plasma, po, 5 mg/kg, non-human primate, po 5 mg/kg, 36 hr, read-out: Plasma level, Individual animals): 6800 ng/mL
concentration at 36 h ([1]; male, cynomolgus monkey, plasma, po, 5 mg/kg, non-human primate, po 5 mg/kg, 36 hr, read-out: Plasma level, Mean): 7190 ng/mL
concentration at 48 h ([1]; male, cynomolgus monkey, plasma, po, 5 mg/kg, non-human primate, po 5 mg/kg, 48 hr, read-out: Plasma level, Mean): 5380 ng/mL
AUC(0-t) [1, 3]: 676 ± 129 µg·h/mL
Tmax [1, 3]: 1.67 ± 0.58 h
half-life ([1]; male, cynomolgus monkey, plasma, po, Cyno, 5.0 mg kg^−1 p.o., mean ± SD, n=3, read-out: T1/2, apparent terminal half-life (converted)): 17.8 ± 4.2 h
Plasma level, Individual animals ([1]; non-human primate, iv 1.0 mg/kg, 0.0083 hr, 1 mg/kg): 11200 ng/mL and 12100 ng/mL
Plasma level, Individual animals ([1]; non-human primate, iv 1.0 mg/kg, 0.25 hr, 1 mg/kg): 10900 ng/mL and 10800 ng/mL
Plasma level, Individual animals ([1]; non-human primate, iv 1.0 mg/kg, 0.5 hr, 1 mg/kg): 10000 ng/mL and 9400 ng/mL
Plasma level, Individual animals ([1]; non-human primate, iv 1.0 mg/kg, 1 hr, 1 mg/kg): 8350 ng/mL and 9370 ng/mL
Plasma level, Individual animals ([1]; non-human primate, iv 1.0 mg/kg, 2 hr, 1 mg/kg): 7340 ng/mL and 8000 ng/mL
Plasma level, Individual animals ([1]; non-human primate, iv 1.0 mg/kg, 4 hr, 1 mg/kg): 6800 ng/mL and 7000 ng/mL
Plasma level, Individual animals ([1]; non-human primate, iv 1.0 mg/kg, 8 hr, 1 mg/kg): 5290 ng/mL and 6220 ng/mL
Plasma level, Individual animals ([1]; non-human primate, iv 1.0 mg/kg, 12 hr, 1 mg/kg): 3860 ng/mL and 6000 ng/mL
Plasma level, Individual animals ([1]; non-human primate, iv 1.0 mg/kg, 24 hr, 1 mg/kg): 2510 ng/mL and 3430 ng/mL
Plasma level, Individual animals ([1]; non-human primate, iv 1.0 mg/kg, 36 hr, 1 mg/kg): 1610 ng/mL and 1090 ng/mL and 2300 ng/mL
Plasma level, Individual animals ([1]; non-human primate, iv 1.0 mg/kg, 48 hr, 1 mg/kg): 962 ng/mL and 671 ng/mL and 1530 ng/mL
Plasma level, Mean ([1]; non-human primate, iv 1.0 mg/kg, Predose): 196 ng/mL
Plasma level, Individual animals ([1]; non-human primate, iv 1.0 mg/kg, Predose, 1 mg/kg): 132 ng/mL and 64.6 ng/mL and 392 ng/mL
Plasma level, Individual animals ([1]; non-human primate, po 5 mg/kg, 0.25 hr, 5 mg/kg): 9420 ng/mL and 14200 ng/mL
Plasma level, Individual animals ([1]; non-human primate, po 5 mg/kg, 0.5 hr, 5 mg/kg): 15200 ng/mL and 23400 ng/mL
Plasma level, Individual animals ([1]; non-human primate, po 5 mg/kg, 1 hr, 5 mg/kg): 31400 ng/mL and 33300 ng/mL
Plasma level, Individual animals ([1]; non-human primate, po 5 mg/kg, 2 hr, 5 mg/kg): 29300 ng/mL and 32000 ng/mL
Plasma level, Individual animals ([1]; non-human primate, po 5 mg/kg, 4 hr, 5 mg/kg): 25800 ng/mL and 29100 ng/mL
Plasma level, Individual animals ([1]; non-human primate, po 5 mg/kg, 6 hr, 5 mg/kg): 22400 ng/mL and 30600 ng/mL
Plasma level, Individual animals ([1]; non-human primate, po 5 mg/kg, 8 hr, 5 mg/kg): 21700 ng/mL and 26200 ng/mL
Plasma level, Individual animals ([1]; non-human primate, po 5 mg/kg, 12 hr, 5 mg/kg): 16100 ng/mL and 22900 ng/mL
Plasma level, Individual animals ([1]; non-human primate, po 5 mg/kg, 24 hr, 5 mg/kg): 9590 ng/mL and 15100 ng/mL
Plasma level, Individual animals ([1]; non-human primate, po 5 mg/kg, 36 hr, 5 mg/kg): 5230 ng/mL and 9530 ng/mL
Plasma level, Individual animals ([1]; non-human primate, po 5 mg/kg, 48 hr, 5 mg/kg): 4550 ng/mL and 2950 ng/mL and 8650 ng/mL
hepatocyte CLint at 1 μM [2]: < 0.7 µL/min/1e6 cells
